Test results: paper PMC7589200, “Identification of Putative Non-Substrate-Based XT-I Inhibitors by Natural Product Library Screening” (Biomolecules, 2020)
Several values for one entry are separate records, joined by “and”; a condition that tells them apart may be missing. Equal entries are not always repeated.

Key:
XYLT1 mRNA expression = XYLT1 mRNA expression in NHDFs by qRT-PCR; format: cell-based, human; conditions: 48 h; for TGF-β1-mediated XYLT1 mRNA expression relative to TGF-β1 only: with TGF-β1 (5 μg/L)
Procedure: (§1) A former established cell culture model was utilized to investigate the effect of putative XT-I inhibitors on NHDFs. The inhibition studies were carried out with final inhibitor concentrations of 0.5, 1.0, 2.0 or 4.0 μM diluted in fully supplemented DMEM. In brief, unless otherwise stated, NHDFs were cultivated with a low density of 50 cells per mm^2 on a hard tissue culture substrate (100 × 20 mm dish) in fully supplemented DMEM with or without additional TGF-β1 (5 μg/L) for 24 h, promoting their transdifferentiation into proto-myofibroblasts. Thereafter, cells were treated with celastrol or amphotericin B in the presence or absence of TGF-β1 (5 μg/L) for an additional 48 h. Negative controls treated with solvent only were included for every sampling time. The final DMSO content of 0.04% (v/v) was kept constant in all inhibition experiments. […]
(§2) The RNA extraction from cell lysates and cDNA synthesis for mRNA and miRNA expression analysis were performed as described previously.
Quantitative real-time polymerase chain reaction (qRT-PCR) analysis using a LightCycler 480 Instrument II system (Roche, Basel, Swiss) was performed as previously described. The qRT-PCR experiments were conducted with three biological and three technical replicates per donor-derived primary cell culture, unless otherwise stated. The intron-spanning primer sequences used are listed in [7] and Table 1. The geometric mean of the expression levels of the housekeeping genes SDHA, RPL13A and B2M were calculated for expression normalization. The relative target gene mRNA expressions were determined by the ΔΔCT method considering the PCR efficiency. All normalized gene expression levels shown were referred to the respective target gene expression of one primary cell culture sample for the relative comparison of multiple biological samples per experiment and figures.

COL1A1 mRNA expression = COL1A1 mRNA expression in NHDFs by qRT-PCR; format: cell-based, human; conditions: 48 h
Procedure: (§3) A former established cell culture model was utilized to investigate the effect of putative XT-I inhibitors on NHDFs. The inhibition studies were carried out with final inhibitor concentrations of 0.5, 1.0, 2.0 or 4.0 μM diluted in fully supplemented DMEM. In brief, unless otherwise stated, NHDFs were cultivated with a low density of 50 cells per mm^2 on a hard tissue culture substrate (100 × 20 mm dish) in fully supplemented DMEM with or without additional TGF-β1 (5 μg/L) for 24 h, promoting their transdifferentiation into proto-myofibroblasts. Thereafter, cells were treated with celastrol or amphotericin B in the presence or absence of TGF-β1 (5 μg/L) for an additional 48 h. Negative controls treated with solvent only were included for every sampling time. The final DMSO content of 0.04% (v/v) was kept constant in all inhibition experiments.
as §2
(§4) Quantitative real-time polymerase chain reaction (qRT-PCR) analysis using a LightCycler 480 Instrument II system (Roche, Basel, Swiss) was performed as previously described. […] The geometric mean of the expression levels of the housekeeping genes SDHA, RPL13A and B2M were calculated for expression normalization. The relative target gene mRNA expressions were determined by the ΔΔCT method considering the PCR efficiency. […]

fibroblasts = conditions: in vitro, osteoblasts and fibroblasts; cited from earlier work
SMAD7 mRNA expression = SMAD7 mRNA expression in NHDFs by qRT-PCR; format: cell-based, human; conditions: 2 μM in the presence of TGF-β1 (5 μg/L), 48 h
Procedure: as §1, §4

TGFB1 mRNA expression = TGFB1 mRNA expression in NHDFs by qRT-PCR; format: cell-based, human; conditions: 2 μM in the presence of TGF-β1 (5 μg/L), 48 h
Procedure: as §3, §2, §4

Row | Compound | TGF-β1-mediated XYLT1 mRNA expression relative to TGF-β1 only (XYLT1 mRNA expression; 0.5 μM) | basal XYLT1 mRNA expression relative to control (XYLT1 mRNA expression; 0.5 μM, without TGF-β1) | TGF-β1-mediated XYLT1 mRNA expression relative to TGF-β1 only (XYLT1 mRNA expression; 1.0 μM) [fold] | basal XYLT1 mRNA expression relative to control (XYLT1 mRNA expression; 1.0 μM, without TGF-β1) [fold] | TGF-β1-mediated XYLT1 mRNA expression relative to TGF-β1 only (XYLT1 mRNA expression; 2.0 μM) [fold] | basal XYLT1 mRNA expression relative to DMSO control (XYLT1 mRNA expression; 2.0 μM, without TGF-β1) [fold] | TGF-β1-mediated COL1A1 mRNA expression relative to TGF-β1 only (COL1A1 mRNA expression; 2.0 μM with TGF-β1 (5 μg/L)) [fold] | COL1A1 mRNA expression compared to controls treated with DMSO (COL1A1 mRNA expression; amphotericin B treatment, not statistically significant (p = 0.2)) [fold] | concentration causing sublethal cytotoxicity (fibroblasts) | concentration lethal to fibroblasts (fibroblasts) [ng/mL] | SMAD7 mRNA expression relative to TGF-β1 only (SMAD7 mRNA expression) [fold] | TGFB1 mRNA expression relative to TGF-β1 only (TGFB1 mRNA expression) [fold]
1 | C[C@@H]1[C@H](O)[C@@H](C)/C=C/C=C/C=C/C=C/C=C/C=C/C=C/[C@H](O[C@@H]2O[C@H](C)[C@@H](O)[C@H](N)[C@@H]2O)C[C@@H]2O[C@](O)(C[C@@H](O)C[C@@H](O)[C@H](O)CC[C@@H](O)C[C@@H](O)CC(=O)O[C@H]1C)C[C@H](O)[C@H]2C(=O)O [Compound 17, Amphotericin B] | 0.9 ± 0.07 fold | 0.6 ± 0.06 fold | 0.8 ± 0.06 | 0.6 ± 0.05 | 0.7 ± 0.03 | 0.6 ± 0.09 | 0.8 ± 0.06 | 0.7 ± 0.1 | 5000 ng/mL and 10000 ng/mL | 100000 | 1.3 ± 0.1 | 0.8 ± 0.04
2 | CC1=C(O)C(=O)C=C2C1=CC=C1[C@@]2(C)CC[C@@]2(C)[C@@H]3C[C@](C)(C(=O)O)CC[C@]3(C)CC[C@]12C [Compound 68, Celastrol] | nor effected | neither changed | 0.8 ± 0.07 | 0.8 ± 0.06 |  |  |  |  |  |  |  | 
